# Laboratory results from patent publication US20240325330A1, “NEW METHOD TO TREAT ACIDOSIS RELATED DISEASES WITH ACETOACETATE” (INSTITUT NATIONAL DE LA SANTÉ ET DE LA RECHERCHE MÉDICALE, priority 2021, published 2024).
# Key:
# [1] = system: human monocytes differentiated into macrophages under lactic acidosis (LA-Mφ); experiment: Metabolite quantification in culture supernatants and acetyl-CoA in lysates; type: cell-based
# Protocol: (§1) Peripheral blood mononuclear cells (PBMC) were obtained from healthy human volunteers (Blood collection center, Angers, France; agreement ANG-2017-01) by standard density-gradient centrifugation on lymphocyte separation medium (Eurobio, Courtaboeuf, France). CD14+ monocytes were then isolated by positive magnetic cell-sorting (Miltenyi Biotec, Bergisch Gladbach, Germany). Monocytes (1×10^6 cells/mL) were cultured in complete medium (CM) consisting of RPMI 1640 (Lonza, Verviers, Belgium) supplemented with 10% fetal calf serum (FCS) (Eurobio), 2 mM L-glutamine, 1 mM sodium pyruvate, 0.1 mM non-essential amino acids, 10 mM HEPES, 100 U/mL penicillin and 100 μg/mL streptomycin (all from Lonza) in the presence of 50 ng/mL GM-CSF (R&D Systems, Minneapolis, MN).
# Experiments were performed in the presence of 10 mM lactic acid (Sigma-Aldrich, St Louis, MO) resulting in a pHe of 6.5 to generate LA-Mφ (lactic acidosis conditioning), 12.35 mM HCl to reach a final pHe of 6.5 and to generate HCl-Mφ(acidosis conditioning), 10 mM sodium lactate (Sigma-Aldrich) to generate lactate-Mφ (lactosis conditioning, pH 7.3), in the absence or presence of 5 mM lithium acetoacetate (AcAc) (Sigma-Aldrich, St Louis, MO).
# The levels of glucose, glutamine, free L-amino acids and lactate in cell culture supernatants, and of acetyl-CoA in whole-cell lysates were determined, together with the intracellular ADP/ATP ratio, with enzymatic assays (Abcam), according to the manufacturer's instructions. […] Acetoacetate concentrations were quantified with β-hydroxybutyrate dehydrogenase (3-HBDH) (Roche Applied Science), an enzyme that catalyzes the reversible reduction of acetoacetate to β-hydroxybutyrate in the presence of excess NADH, with the concomitant oxidation of NADH. The progress of the reaction was monitored by measuring the decrease in 340 nm absorbance due to the conversion of NADH into NAD. AcAc consumption was determined by subtracting the concentration of AcAc in cell culture supernatants from that in cell-free culture supernatants.
# [2] = system: human monocytes differentiated into macrophages under lactic acidosis (LA-Mφ); experiment: Mitochondrial network architecture, morphology and size (confocal microscopy, TEM); type: cell-based; details: 5 mM AcAc, 10 mM lactic acid; compared with Mφ; data not shown
# Protocol: as §1, with “MN). […]” for “MN).”
# Cells were first incubated with 150 nM MitoTracker Green (Thermo Fisher Scientific) in CM medium at 37° C. for 10 min. […] Image blobs were then analyzed with the regionprops function of Matlab.
# We fixed 5×10^6 macrophages by incubation for 16 h at 4° C. with 2.5% electron-grade glutaraldehyde (LFD Distribution, Sainte Consorce, France) in 0.1 M phosphate buffer pH 7.4. […] Stitched images were reviewed and scored by a trained electron histopathologist for the presence of autophagy and mitophagy vacuoles. Mitochondrial size was determined by measuring the maximum Feret diameter on TEM images.
# U937 cell line = details: cited from earlier work
compound,measurement,setting,value
"CC(=O)CC(=O)[O-].[Li+] [AcAc, lithium acetoacetate]",uptake of glucose and amino acids and production of lactate,"[1]; LA-Mφ in the presence of 5 mM AcAc, FIG. 2A-D",retain a partial capacity to take up glucose and amino acids and to produce lactate
same,AcAc consumption by cells,"[1]; LA-Mφ+AcAc culture supernatants, days 1 and 3, FIG. 2F",consume AcAc
same,intracellular AcCoA levels,"[1]; reduction induced by LA, in the presence of 5 mM AcAc",prevented the reduction of intracellular AcCoA levels
same,mitochondrial network architecture (morphology and size),[2],protected the mitochondrial network architecture
same,IL-6 and TNF production,U937 cell line,enhance IL-6 and TNF production
